{
  "source": "patent US5874235A",
  "about": "“Screening assays for cancer chemopreventative agents” (The Johns Hopkins University, priority 1997, dated 1999)",
  "key": {"[1]": {"system": "primary human diploid fibroblast (HDF)", "assay": "Apoptosis in primary fibroblasts", "format": "cell-based", "details": "200 μM SUS, 48 hours, read-out: cells that had undergone apoptosis", "protocol": "This ability of SUS is not limited to colon cancer cells; primary fibroblasts and immortalized keratinocytes can increase ceramide levels and undergo apoptosis in response to SUS. […] Forty-eight hours after exposure to 200 μM SUS greater than 70% of the cells had undergone apoptosis and ceramide levels were 8.2 and 4.7 fold increased in HDF and HaCat cells, respectively. This is consistent with NSAIDs' ability to reduce tumor formation in a variety of tissues (19) and their adverse effects on normal gastric mucosa, but it fails to explain the apparent greater sensitivity of tumor cells. The in vivo effect will likely depend on the local concentration of the NSAID in the incipient tumor microenvironment as well as the target cell's \"lipid biostat\" (20). The fact that the concentration of SUS is higher in the intestines than in other organs, due to enterohepatic circulation and due to the metabolic activation of sulindac to SUS by gut flora (21), may be responsible for its particular efficacy in intestinal tumorigenesis."}, "[2]": {"system": "neutral sphingomyelinase in SW480 cell lysates", "assay": "Neutral sphingomyelinase activity in lysates of treated cells (14C-sphingomyelin hydrolysis)", "format": "cell-based, human", "details": "SUS 50, 200 and 600 μM, 6 to 24 hours", "protocol": "(§1) To test whether the increased ceramide was associated with evidence of augmented sphingomyelinase activity, we measured total sphingomyelin levels after SUS treatment. […] We also measured neutral sphingomyelinase activity in lysates from the treated cells and no differences were found. Neutral sphingomyelinase activity was assayed as described (18). After cell lysis, protein concentrations were determined using the Bradford method (Bio-Rad) and […] cellular protein was used in each assay. Neutral sphingomyelinase activity was determined by measuring the rate of hydrolysis of ^14 C-labelled sphingomyelin (Amersham). SW480 and HCT116 cell lines were treated with SUS (50, 200, and 600 μM) for 6 to 24 hours."}, "[3]": {"system": "neutral sphingomyelinase in HCT116 cell lysates", "assay": "Neutral sphingomyelinase activity in lysates of treated cells (14C-sphingomyelin hydrolysis)", "format": "cell-based, human", "details": "for neutral sphingomyelinase activity relative to untreated controls: 200 μM SUS", "protocol": "as §1"}, "[4]": {"system": "HCT116 cells", "assay": "Arachidonic acid levels, release of 3H-AA into the media", "format": "cell-based, human", "details": "for fold induction at 50 µM: 50 μM SUS, read-out: arachidonic acid levels relative to control; for increase in arachidonic acid: apoptosis-inducing doses of SUS", "protocol": "(§2) FIGS. 4A, 4B, 4C, 4D, 4E and 4F. The role of arachidonic acid in NSAID-mediated apoptosis. […] HCT116 and SW480 cells were treated with the indicated concentrations of SUS or INDO. Arachidonic acid (AA) levels were determined by measuring release of ^3 H-AA into the media as previously described (18). Data are indicated as the mean of three replicates with the error bars corresponding to the standard deviation. In addition, the nature of the released radiolabeled material was evaluated by thin layer chromatography as previously described (28). […] HCT116 and SW480 cells were incubated with ^3 H-choline chloride (0.5 mCi ml^-1, 80 Ci mmol^-1, New England Nuclear) for 48 hours. After labeling, cells were washed with HBSS (Gibco) and treated with SUS or INDO for the indicated times. Sphingomyelin measurements were performed using the bacterial sphingomyelinase method as previously described (18). Sphingomyelin levels at each time point are plotted as a percentage of that in untreated control cells. For each point, the mean of at least two independent experiments is presented with the error bars corresponding to the standard deviations. […] SW480 cells were treated with 200 μM arachidonic acid (AA), SUS (SUS) or behenic acid as a control fatty acid (FA) as indicated. […] SW480 cells were treated with suboptimal doses (100 μM) of arachidonic acid (AA), SUS (SUS), or both (AA+SUS) as indicated. After 48 hours of treatment, apoptosis and ceramide increases were assessed as described for FIGS. 1 and 3, respectively. Ceramide increases (left axis) were expressed as fold increases relative to untreated cells. Apoptosis (right axis) was expressed as percent apoptotic cells minus percent apoptotic cells in untreated cells (5.6%+/-2.4). Data are indicated as the mean of duplicates with the error bars corresponding to the standard deviation.\n(§3) Arachidonic acid is known to stimulate neutral sphingomyelinase (18), which catalyzes the conversion of sphingomyelin to ceramide. We therefore considered the possibility that inhibition of COX activity might lead to increases in arachidonic acid, the substrate for COX. To test this hypothesis, we first determined whether SUS stimulated arachidonic acid accumulation. In both SW480 and HCT 116 cells, apoptosis-inducing doses of SUS increased arachidonic acid by 2 to 3 fold at 24 hours and by approximately 5 fold at 48 hours (FIGS. 4A and 4B). The arachidonic acid increase following SUS treatment was as great as that following treatment with mellitin, a known activator of phospholipase A2. Arachidonic acid levels in HCT116 cells increased 3.5 fold one hour after treatment with 1 μM mellitin. Likewise, arachidonic acid levels increased 2.9 fold in SW480 cells one hour after mellitin treatment. Arachidonic acid (AA) levels were determined by measuring release of ^3 H-AA into the media as previously described (18). The nature of released radiolabeled material was evaluated by thin layer chromatography analysis as previously described (28)."}, "[5]": {"system": "COX in HCT116 cells", "assay": "COX activity in treated cells", "format": "cell-based, human"}, "[6]": {"system": "SW480 cells", "assay": "Phosphatidylserine exposure by merocyanine staining", "format": "cell-based, human", "details": "200 μM SUS, 50 hours", "protocol": "Phosphatidylserine exposure was assessed by merocyanine staining as previously described (31). Forty-eight hours after treatment with 125 μM SUS, 44% of HCT116 stained with merocyanine versus 4% in the vehicle-treated control cells. Likewise, 74% of SW480 cells stained with merocyanine 50 hours after treatment with 200 μM SUS versus 1.5% of the vehicle-treated control cells."}, "[7]": {"system": "immortalized human keratinocytes (HaCat)", "assay": "Ceramide levels in immortalized keratinocytes", "format": "cell-based", "details": "48 h, read-out: increase in ceramide levels", "protocol": "Ceramide levels were measured using the Escherichia coli diacylglycerol (DAG) kinase assay as previously described (30) with the following modifications. After the initial lipid extraction, phases were broken by adding 2 ml chloroform and 2 ml 1M NaCl and lipids were washed with 1M NaCl prior to drying under nitrogen (32, 33). After solubilization, samples were sonicated for 15 seconds. The DAG reaction was performed for 30 minutes at 25° C. in a 100 μl reaction volume with 3.5 μg DAG kinase (Calbiochem) and […] γ^32 P-ATP (Dupont NEN, 6000 Ci/mmol). After extraction of the labeled lipids, the lower chloroform phase was washed with 1% HCl prior to drying under nitrogen. The solvent mixture for thin layer chromatography was chloroform:acetone:methanol:acetic acid:water (10:4:3:2:1). Samples were quantitated using a Phosphorimager (Molecular Dynamics).\nThis ability of SUS is not limited to colon cancer cells; primary fibroblasts and immortalized keratinocytes can increase ceramide levels and undergo apoptosis in response to SUS. […] Forty-eight hours after exposure to 200 μM SUS greater than 70% of the cells had undergone apoptosis and ceramide levels were 8.2 and 4.7 fold increased in HDF and HaCat cells, respectively. […]"}, "[8]": {"system": "SW480 cells", "assay": "cells", "format": "cell-based, human", "details": "for increase in arachidonic acid: apoptosis-inducing doses of SUS", "protocol": "as §2, §3"}},
  "note": "Read-outs that look alike come from different tables or passages of the source.",
  "data": [
    {"smiles": "CSc1ccc(/C=C2/C(C)=C(CC(=O)O)c3cc(F)ccc32)cc1", "note": "[SUS, sulindac sulfide]", "values": [
      {"measurement": "cytotoxicity at 200 µM", "setting": "[1]", "value": "> 70", "unit": "%"},
      {"measurement": "neutral sphingomyelinase activity in cell lysates", "setting": "[2]", "value": "None of these treatments enhanced neutral sphingomyelinase activity"},
      {"measurement": "neutral sphingomyelinase activity relative to untreated controls", "setting": "[3]; 6 hours", "value": 90, "unit": "%"},
      {"measurement": "neutral sphingomyelinase activity relative to untreated controls", "setting": "[3]; 16 hours", "value": 92, "unit": "%"},
      {"measurement": "neutral sphingomyelinase activity in cell lysates", "setting": "[3]; SUS 50, 200 and 600 μM, 6 to 24 hours", "value": "None of these treatments enhanced neutral sphingomyelinase activity"},
      {"measurement": "fold induction at 50 µM", "setting": "[4]; Homo sapiens, HCT-116, 8 hours", "value": 0.9},
      {"measurement": "fold induction at 50 µM", "setting": "[4]; Homo sapiens, HCT-116, 16 hours", "value": 1.05},
      {"measurement": "fold induction at 50 µM", "setting": "[4]; Homo sapiens, HCT-116, 24 hours", "value": 1.14},
      {"measurement": "fold induction at 200 µM", "setting": "[4]; Homo sapiens, HCT-116, 200 μM SUS, 16 hours, read-out: increase in arachidonic acid", "value": 5.1},
      {"measurement": "increase in arachidonic acid", "setting": "[4]; 24 hours", "value": "2 to 3", "unit": "fold"},
      {"measurement": "increase in arachidonic acid", "setting": "[4]; 48 hours", "value": "approximately 5 fold"},
      {"measurement": "COX activity, % relative to controls", "setting": "[5]; 50 μM SUS", "value": "98+/-30%"},
      {"measurement": "COX activity, % of controls", "setting": "[5]; 125 μM SUS", "value": "21+/-15%"},
      {"measurement": "cells stained with merocyanine", "setting": "[6]", "value": 74, "unit": "%"},
      {"measurement": "fold induction at 200 µM", "setting": "[7]", "value": 4.7},
      {"measurement": "fold induction at 200 µM", "setting": "[8]; Homo sapiens, SW480, 200 μM SUS, 16 hours, read-out: increase in arachidonic acid", "value": 3.4},
      {"measurement": "increase in arachidonic acid", "setting": "[8]; 24 hours", "value": "2 to 3", "unit": "fold"},
      {"measurement": "increase in arachidonic acid", "setting": "[8]; 48 hours", "value": "approximately 5 fold"}
    ]}
  ]
}
